Test results published in the CheMixHub ionic liquid set.
Values joined by “and” are separate entries in the source; they are usually repeats but may differ in a detail not shown here. Equal entries are not always repeated.

Assay: xn = mol fraction of the nth substance listed

CC[NH3+].O=[N+]([O-])[O-] + O
Conditions | viscosity
288.15 K, 101.33 kPa, x2 = 0.574 | 5.43 mPa·s and 7.928 mPa·s
293.15 K, 100 kPa, x2 = 0.1088 | 20.97 mPa·s
293.15 K, 100 kPa, x2 = 0.3682 | 7.63 mPa·s
293.15 K, 100 kPa, x2 = 0.47 | 6.34 mPa·s
293.15 K, 100 kPa, x2 = 0.579 | 5.03 mPa·s
293.15 K, 101.33 kPa, x2 = 0.574 | 4.86 mPa·s and 7.175 mPa·s
298 K, 101 kPa, x2 = 0.7 | 3.42 mPa·s
298 K, 101 kPa, x2 = 0.95 | 1.15 mPa·s
298.15 K, 100 kPa, x2 = 0.7889 | 2.16 mPa·s
298.15 K, 100 kPa, x2 = 0.8895 | 1.48 mPa·s
298.15 K, 101.33 kPa, x2 = 0.574 | 4.415 mPa·s and 6.559 mPa·s
303.15 K, 100 kPa, x2 = 0.1088 | 15.74 mPa·s
303.15 K, 100 kPa, x2 = 0.2597 | 7.78 mPa·s
303.15 K, 100 kPa, x2 = 0.7889 | 1.95 mPa·s
303.15 K, 100 kPa, x2 = 0.8895 | 1.34 mPa·s
303.15 K, 101.33 kPa, x2 = 0.574 | 3.953 mPa·s and 5.989 mPa·s
308.15 K, 100 kPa, x2 = 0.1088 | 13.76 mPa·s
308.15 K, 100 kPa, x2 = 0.47 | 4.52 mPa·s
308.15 K, 101.33 kPa, x2 = 0.574 | 3.571 mPa·s and 5.567 mPa·s
313.15 K, 100 kPa, x2 = 0 | 22.67 mPa·s
313.15 K, 100 kPa, x2 = 0.579 | 3.26 mPa·s
313.15 K, 101.33 kPa, x2 = 0.574 | 3.247 mPa·s and 5.268 mPa·s
318.15 K, 100 kPa, x2 = 0.47 | 3.71 mPa·s
318.15 K, 100 kPa, x2 = 0.7889 | 1.49 mPa·s
318.15 K, 101.33 kPa, x2 = 0.574 | 2.96 mPa·s and 4.826 mPa·s
323.15 K, 101.33 kPa, x2 = 0.574 | 2.709 mPa·s and 4.535 mPa·s
328.15 K, 101.33 kPa, x2 = 0.574 | 2.479 mPa·s and 4.213 mPa·s
333.15 K, 101.33 kPa, x2 = 0.574 | 2.281 mPa·s and 4.065 mPa·s
338.15 K, 101.33 kPa, x2 = 0.574 | 2.102 mPa·s and 3.912 mPa·s
343.15 K, 101.33 kPa, x2 = 0.574 | 1.945 mPa·s

CCCCCCCCn1cc[n+](C)c1.[Cl-] + O
Conditions | electrical conductivity [S/m] | viscosity [mPa·s]
278.15 K, 100 kPa, x1 = 0.0001 | – | 1.534
278.15 K, 100 kPa, x1 = 0.0001668 | – | 1.543
278.15 K, 100 kPa, x1 = 0.0002526 | – | 1.559
278.15 K, 100 kPa, x1 = 0.0003767 | – | 1.575
278.15 K, 100 kPa, x1 = 0.0005495 | – | 1.603
278.15 K, 100 kPa, x1 = 0.000764 | – | 1.642
278.15 K, 100 kPa, x1 = 0.0009813 | – | 1.683
283.15 K, 100 kPa, x1 = 0.0001 | – | 1.316
283.15 K, 100 kPa, x1 = 0.0001668 | – | 1.322
283.15 K, 100 kPa, x1 = 0.0002526 | – | 1.33
283.15 K, 100 kPa, x1 = 0.0003767 | – | 1.346
283.15 K, 100 kPa, x1 = 0.0005495 | – | 1.368
283.15 K, 100 kPa, x1 = 0.000764 | – | 1.404
283.15 K, 100 kPa, x1 = 0.0009813 | – | 1.439
288.15 K, 100 kPa, x1 = 0.0001 | – | 1.151
288.15 K, 100 kPa, x1 = 0.0001668 | – | 1.165
288.15 K, 100 kPa, x1 = 0.0002526 | – | 1.182
288.15 K, 100 kPa, x1 = 0.0003767 | – | 1.206
288.15 K, 100 kPa, x1 = 0.0005495 | – | 1.233
288.15 K, 100 kPa, x1 = 0.000764 | – | 1.27
288.15 K, 100 kPa, x1 = 0.0009813 | – | 1.304
293.15 K, 100 kPa, x1 = 0.0001 | – | 1.01
293.15 K, 100 kPa, x1 = 0.0001668 | – | 1.014
293.15 K, 100 kPa, x1 = 0.0002526 | – | 1.021
293.15 K, 100 kPa, x1 = 0.0003767 | – | 1.031
293.15 K, 100 kPa, x1 = 0.0005495 | – | 1.046
293.15 K, 100 kPa, x1 = 0.000764 | – | 1.068
293.15 K, 100 kPa, x1 = 0.0009813 | – | 1.09
298.15 K, 100 kPa, x1 = 0.0001 | – | 0.898
298.15 K, 100 kPa, x1 = 0.0001668 | – | 0.901
298.15 K, 100 kPa, x1 = 0.0002526 | – | 0.906
298.15 K, 100 kPa, x1 = 0.0003767 | – | 0.916
298.15 K, 100 kPa, x1 = 0.0005495 | – | 0.929
298.15 K, 100 kPa, x1 = 0.000764 | – | 0.947
298.15 K, 100 kPa, x1 = 0.0009813 | – | 0.965
298.15 K, 101.3 kPa, x1 = 4.96e-06 | 0.00314 | –
298.15 K, 101.3 kPa, x1 = 7.53e-06 | 0.00467 | –
298.15 K, 101.3 kPa, x1 = 1.002e-05 | 0.00613 | –
298.15 K, 101.3 kPa, x1 = 1.247e-05 | 0.00756 | –
298.15 K, 101.3 kPa, x1 = 1.481e-05 | 0.00893 | –
298.15 K, 101.3 kPa, x1 = 1.716e-05 | 0.01029 | –
298.15 K, 101.3 kPa, x1 = 1.95e-05 | 0.0116 | –
298.15 K, 101.3 kPa, x1 = 2.177e-05 | 0.0129 | –
298.15 K, 101.3 kPa, x1 = 2.424e-05 | 0.01436 | –
298.15 K, 101.3 kPa, x1 = 2.667e-05 | 0.0158 | –
298.15 K, 101.3 kPa, x1 = 2.939e-05 | 0.0173 | –
303.15 K, 100 kPa, x1 = 0.0001 | – | 0.804
303.15 K, 100 kPa, x1 = 0.0001668 | – | 0.807
303.15 K, 100 kPa, x1 = 0.0002526 | – | 0.812
303.15 K, 100 kPa, x1 = 0.0003767 | – | 0.819
303.15 K, 100 kPa, x1 = 0.0005495 | – | 0.83
303.15 K, 100 kPa, x1 = 0.000764 | – | 0.845
303.15 K, 100 kPa, x1 = 0.0009813 | – | 0.861
308.15 K, 100 kPa, x1 = 0.0001 | – | 0.725
308.15 K, 100 kPa, x1 = 0.0001668 | – | 0.727
308.15 K, 100 kPa, x1 = 0.0002526 | – | 0.732
308.15 K, 100 kPa, x1 = 0.0003767 | – | 0.737
308.15 K, 100 kPa, x1 = 0.0005495 | – | 0.747
308.15 K, 100 kPa, x1 = 0.000764 | – | 0.761
308.15 K, 100 kPa, x1 = 0.0009813 | – | 0.775
313.15 K, 100 kPa, x1 = 0.0001 | – | 0.658
313.15 K, 100 kPa, x1 = 0.0002526 | – | 0.665
313.15 K, 100 kPa, x1 = 0.0003767 | – | 0.669
313.15 K, 100 kPa, x1 = 0.0005495 | – | 0.677
313.15 K, 100 kPa, x1 = 0.000764 | – | 0.689
313.15 K, 100 kPa, x1 = 0.0009813 | – | 0.701

298.15 K, 100 kPa, frequency 0.001 MHz
Conditions | electrical conductivity [S/m]
x1 = 0.001709 | 0.532
x1 = 0.002014 | 0.588
x1 = 0.002301 | 0.647
x1 = 0.00266 | 0.716
x1 = 0.002911 | 0.765
x1 = 0.003215 | 0.824
x1 = 0.003519 | 0.889
x1 = 0.003824 | 0.941
x1 = 0.004074 | 0.978
x1 = 0.004467 | 1.02
x1 = 0.004967 | 1.08
x1 = 0.005947 | 1.16
